From PubChem BioAssay (NCI)
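Where inhibition never reached the appropriate level, the endpoint shown equals the highest concentration tested. Otherwise, values were interpolated linearly from a five-concentration, 48-hour dose response in 96-well plates. GI50: concentration for 50% inhibition of growth. TGI: total growth inhibition.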 Where a SMILES comes first, the peptide text is derived from it. [ ]: non-standard residue; d: D form. The star is where a group is joined. ξ: configuration not given here. X6 = FC(F)(F)c1cc(NC(=S)*)cc(C(F)(F)F)c1; ξF = NC(Cc1ccccc1)C(=O)O

Assays:
Assay in all cases: DTP human tumour cell line panel, 48 h
HS 578T breast = test system: HS 578T breast
NCI/ADR-RES ovarian = test system: NCI/ADR-RES ovarian
MDA-MB-435 = test system: MDA-MB-435
DMS 114 small cell lung = test system: DMS 114 small cell lung
DMS 273 small cell lung = test system: DMS 273 small cell lung
DLD-1 colon = test system: DLD-1 colon
RXF-631 renal = test system: RXF-631 renal
MDA-N = test system: MDA-N

SMILES | GI50 (HS 578T breast) [µM] | TGI (HS 578T breast) [µM] | GI50 (NCI/ADR-RES ovarian) [µM] | TGI (NCI/ADR-RES ovarian) [µM] | GI50 (MDA-MB-435) [µM] | TGI (MDA-MB-435) [µM] | TGI (DMS 114 small cell lung) [µM] | TGI (DMS 273 small cell lung) [µM] | TGI (DLD-1 colon) [µM] | TGI (RXF-631 renal) [µM] | TGI (MDA-N) [µM]
O=S(=O)(NC1=NCCN1C(=S)SN1CCn2c1nsc2=S)c1ccc(OC(F)(F)F)cc1 | 4.83 | 33.1 | 20.5 | > 100 | 4.47 | 24.5 |  |  |  |  | 
C=C(CN1CCN(c2ccc(Cl)cc2F)CC1)c1ccc(C(=O)Nc2ccccc2N)cc1 | 3.38 | > 70.6 | 1.97 | 5.5 |  |  |  |  |  |  | 
Cn1cc(C2=C(c3cn(C)c4ncccc34)C(=O)NC2=O)c2ccccc21 | 4.17 | > 19.1 | 11.5 | > 25 | 2.2 | > 25 |  |  |  |  | 
COc1ccc(-c2nc3sccn3c2/C(N)=N/C(=N)N)cc1OC | 35.5 | > 100 | > 100 | > 100 | 33.1 | > 100 |  |  |  |  | 
N#CC1C(C#N)C2(c3ccccc3)C(c3ccccc3)=NN(c3ccccc3)CC12 (configuration not stated) |  |  |  |  |  |  | > 100 | > 100 | > 100 |  | 
O=C1C(Cl)=C(Nc2cccc(Cl)c2)C(=O)N1Cc1ccc(Cl)cc1Cl | 1.23 | 22.9 | 0.904 | 25 | 1.24 | 16 |  |  |  |  | 
COc1ccc(C(=O)Cn2c(C(=O)c3ccccc3)nc(-c3ccc(OC)cc3)c2-c2ccc(OC)cc2)cc1 | 45.6 | > 100 | > 100 | > 100 | > 100 | > 100 |  |  |  |  | 
O=C(COc1ccc(Br)cc1Br)N1N=C(c2ccc([N+](=O)[O-])o2)CC1(O)c1ccccc1 (configuration not stated) |  |  |  |  |  |  | 23.5 | 32.5 | 30.2 |  | 
CCOC(=O)CN1C(=O)c2cccc3cc([N+](=O)[O-])cc(c23)C1=O |  |  |  |  |  |  | 4.94 |  | 5.43 |  | 
N#CCCN(CCC#N)c1ccc(/C=C2\N=C(c3cc([N+](=O)[O-])ccc3Cl)OC2=O)cc1 |  |  |  |  |  |  | 47.9 | > 100 |  |  | 
CC(C)C/C(CC(=O)CCC(=O)Nc1ccccc1[N+](=O)[O-])=N\NC(=O)c1cc2ccccc2cc1O |  |  |  |  |  |  | 86.8 |  | > 100 | > 100 | 
COc1ccc2c(c1)/C(=C/c1c(C)nc3sc(C)nn13)C(=O)N2 | 5.16 | > 68.3 | 1.83 | 13.6 |  |  |  |  |  |  | 
Cc1cc(I)cc(CN(C)CCCCN2CCCCC2)c1O | 8.9 | 23.5 | 19.5 | 73.2 | 3.5 | 12.9 |  |  |  |  | 
CC12CCC(O)CC1CCC1C2CCC2(C)C(C3=CC(=O)OC3)CCC12O (configuration not stated) |  | > 100 |  | 5.77 |  | 9.38 |  |  |  |  | 6.38
CC/C=C\CCC/C=C1/C(=O)C=C[C@@H]1C/C=C\CCCC(=O)OC | 10.6 | 53.3 | 3.45 | 18 | 2.49 | 6.39 |  |  |  |  | 
CCN(CCO)CC1CCCC2CCCCC21 (configuration not stated) |  | > 100 |  | > 100 |  | > 100 |  |  |  |  | > 100
N#CC(c1ccc(Cl)cc1)c1cccc(C(C#N)c2ccc(Cl)cc2)n1 (configuration not stated) |  |  |  |  |  |  |  |  | > 100 |  | 
CC(C)CCC[C@@H](C)[C@H]1CC[C@H]2[C@@H]3CC=C4C[C@@H](C(C(=O)O)C(=O)O)CC[C@]4(C)[C@H]3CC[C@]12C | 0.242 | 2.58 | 0.22 | 6 | 0.0721 | 0.188 |  |  |  |  | 

SMILES | GI50 (HS 578T breast) [µM] | TGI (HS 578T breast) [µM] | GI50 (NCI/ADR-RES ovarian) [µM] | TGI (NCI/ADR-RES ovarian) [µM] | GI50 (MDA-MB-435) [µM] | TGI (MDA-MB-435) [µM] | TGI (DMS 114 small cell lung) [µM] | TGI (DMS 273 small cell lung) [µM] | TGI (DLD-1 colon) [µM] | TGI (RXF-631 renal) [µM] | TGI (MDA-N) [µM]
CCCCCN(CCCCC)CCCNc1c2c(nc3ccc(Cl)cc13)CCCC2 |  |  | 2.15 | 6.11 | 2.23 | 6.56 |  |  |  |  | 
NC(=O)c1cccc2cn(-c3ccc([C@@H]4CCCNC4)cc3)nc12 | 21.5 | 76.7 | 19.5 | > 74.5 | 12.7 | 26.5 |  |  |  |  | 
CCOc1ccc(NC(=O)C(=O)CC(=O)c2c[n+](=O)c3cc(C)c(C)cc3n2[O-])cc1 |  |  |  |  |  |  | > 100 | > 100 |  | > 100 | 
O=C1C2C(C(=O)N1OS(=O)(=O)c1ccccc1)N(Cc1ccccc1)C(=O)N2Cc1ccccc1 (configuration not stated) |  |  |  |  |  |  | > 100 |  | > 100 | > 100 | 
CN1C(=O)C(C)(C)C2(SC(C)(C)C2(C)C)N(C)C1=S (configuration not stated) |  |  |  |  |  |  | > 100 | > 100 | > 100 |  | 
CCCCCCCCCCCCCCCCCC(CCCCCCCCCCCCCCCCC)OP(=O)(O)O |  |  |  |  |  |  | > 100 | > 100 |  |  | 
COc1cc(Cc2cnc(/N=C3\C(=O)N(CN4CCN(c5c(F)cc6c(=O)c(C(=O)O)cn(C7CC7)c6c5OC)CC4C)c4ccc(F)cc43)nc2N)cc(OC)c1OC (configuration not stated) | 23.6 | 82.5 | 11.8 | 29.4 | 14.2 | 32.9 |  |  |  |  | 
O=C1C(=O)N(c2ccc(Cl)cc2Cl)C(=O)C(=O)C1c1nc2ccccc2s1 |  |  |  |  |  |  | > 100 | > 100 | > 92.2 |  | 
COc1ccc2c(C3=C(c4cn(C)c5ccccc45)C(=O)NC3=O)cn(C)c2c1 | 0.113 | > 25 | 0.0928 | > 25 |  |  |  |  |  |  | 
Clc1cc2nsnc2c(Cl)n1 |  |  |  |  |  |  | 33.5 | > 100 | 42.1 |  | 
O=C(O)CSc1ccc([N+](=O)[O-])cc1[N+](=O)[O-] |  | > 100 |  | > 100 |  | > 100 |  |  |  |  | > 100
CC1=C(C(=O)NCc2ccccc2)C(/C=C/c2ccccc2)C(C(=O)NCc2ccccc2)=C(C)N1 |  |  |  |  |  |  | > 100 | > 100 | > 100 |  | 
O=C(O)CCc1coc2ccc(O)cc12 |  |  |  |  |  |  | > 100 | > 100 | > 100 |  | 
COc1cc(/C=N/NC(=O)c2ccc(C(F)(F)F)nc2Nc2ccc(Cl)cc2C)ccc1O | 3.53 | 16.5 | 2.66 | 9.97 | 3.08 | 11 |  |  |  |  | 
COC1=CC(=O)c2nc(-c3ccncc3)[nH]c2C1=O | 60 | > 100 | > 100 | > 100 | > 100 | > 100 |  |  |  |  | 
CC(=O)NNc1nc(C)c(C(=O)NNC(=O)C(=O)Nc2c(Cl)cc([N+](=O)[O-])cc2Cl)s1 |  |  |  |  |  |  | 94.9 | > 100 |  |  | 
Cc1nc2ccccc2c(=O)n1-c1ccccc1I |  |  |  |  |  |  | > 100 |  | > 100 |  | 
COC(=O)[C@@H](NC(=O)CNC(=O)[C@H]1CCCN1C(=O)C(Cc1ccccc1)NC(=S)Nc1cc(C(F)(F)F)cc(C(F)(F)F)c1)C(C)C (some centres not stated) (X6-[ξF][dP]GV-OMe) | 2.47 | 8.49 | 3.47 | 43.3 | 2.79 | 8.12 |  |  |  |  | 
